Earlier results as cited in US12343354B2, “Injection containing p-boronophenylalanine” (Stella Pharma Corporation, priority 2019, dated 2025).

Settings: physiological pH

- solubility: very poor solubility
Structure (SMILES): N[C@@H](Cc1ccc(B(O)O)cc1)C(=O)O [p-Boronophenylalanine, p-boronophenylalanine]
